Experiment [1] deals with Diet-induced obese male Long-Evans rats. Put plainly: Block of MCH-stimulated food intake after intracerebroventricular injection. The experiment is classed as in vivo, rat. The following applies: 82 nmol compound plus 2.1 nmol MCH, ICV; food intake at 2, 4 and 6 hours after injection; n=6 per group; p<0.05 vs. MCH alone; FIG. 1. The procedure:
Diet-induced obese male Long-Evans rats (Harlan, Ind.) weighing 500–550 g at time of surgery were anesthetized with isoflurane. Stainless steel cannula guides (5 mm length, 26 gauge, Plastics One, Va.) were stereotaxically implanted in the lateral ventricle anteroposteriority: 0.8 mm caudal to bregma; and lateral: 1.5 mm from midline suture. Animals were individually housed in a temperature regulated room (24° C.) with a reverse 12 hour light/dark cycle (dark 10:00/22:00). Water and food (Teklad 95217, Harlan, Wis.) were available ad libitum. After surgery, animals were allowed to recover 7 days before experimental use. On test day, food was removed 1 hr prior to testing and animals (4 groups, n=6 per group) were injected between 0900 and 1000 with 5 μl of vehicle (artificial CSF), 2.1 nmol MCH, 82 nmol of compound of example 136, and MCH plus compound of example 136. Cumulative food intake was measured at 2, 4 and 6 hours after injection.

Experiment [2] deals with T1, human MCHR1 (Homo sapiens, UniProt Q99705).
T1 construct: The full-length cDNA for human MCHR1 was cloned from a human adult brain cDNA library; expressed in transfected cells; host or cells: AV12 cells previously transfected with Gα15
T1 sequence (Q99705 whole entry): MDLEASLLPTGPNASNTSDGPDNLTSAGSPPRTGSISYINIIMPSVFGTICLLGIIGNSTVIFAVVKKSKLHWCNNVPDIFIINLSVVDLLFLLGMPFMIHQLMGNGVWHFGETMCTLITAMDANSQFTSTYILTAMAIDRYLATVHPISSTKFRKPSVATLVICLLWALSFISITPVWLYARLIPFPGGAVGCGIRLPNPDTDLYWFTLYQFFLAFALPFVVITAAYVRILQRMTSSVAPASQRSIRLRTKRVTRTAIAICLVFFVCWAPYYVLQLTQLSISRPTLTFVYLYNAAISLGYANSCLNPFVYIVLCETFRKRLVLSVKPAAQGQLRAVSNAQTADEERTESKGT
Put plainly: Inhibition of MCH-stimulated GTPγ35S binding to clone 43 membranes (functional antagonism). The following applies: inhibition of GTPγ35S binding stimulated by 40 nM MCH (about EC90), Kb from IC50 by modified Cheng-Prusoff (Leff and Dougal), tested in duplicate. The experiment is classed as biochemical. An excerpt:
(§1) The full-length cDNA for human MCHR1 was cloned from a human adult brain cDNA library (Edge Biosystems, Cat. 38356) by standard polymerase chain reaction (PCR) methodology employing the following primers: sense, 5′-GCCACCATGGACCT GGAAGCCTCGCTGC-3′; anti-sense, 5′-[…]-3′.
(§2) In order to generate cell lines stably expressing MCHR1, the insert was then subcloned into the Xba I and Not I sites of pcDNA(+)-3.1-neomycin (Invitrogen). After purification by Qiagen Maxi-prep kit (QIAGEN, Inc.), the plasmid was transfected by Fugene 6 (Roche Applied Science) into AV12 cells that had been previously transfected with the promiscuous G protein Gα15. The transfected cells were selected by
(§3) Both the ^125I-MCH binding and functional GTPγ^35S binding assays employed membranes isolated from a clone designated as clone 43. Typically, cells from 20 confluent T225 flasks were processed by washing the monolayers in cold phosphate-buffered saline (PBS), scraping the cells into same and re-suspending the cell pellet in 35 ml of 250 mM Sucrose, 50 mM HEPES, pH 7.5, 1 mM MgCl2, 24 μg/ml DNase I, and protease inhibitors (1 Complete® tablet, per 50 ml of buffer prepared, Roche Diagnostics). After incubation on ice for 5 min, cells were disrupted with 20–25 strokes of a Teflon/Glass homogenizer attached to an overhead motorized stirrer, and the homogenate was centrifuged at 40,000 rpm in Beckman Type 70.1 Ti rotor. The pellets were re-suspended in 250 mM Sucrose, 50 mM HEPES, pH 7.5, 1.5 mM CaCl2, 1 mM MgSO4 and protease inhibitors by Teflon/Glass homogenization to achieve a protein concentration of ˜3–5 mg/ml (Pierce BCA assay with Bovine serum albumin as standard).
Functional antagonism of MCH activity is assessed by measuring the ability of test compound to inhibit MCH-stimulated binding of GTPγ^35S to clone 43 membranes. Briefly, assays are carried out in Costar 3632 white opaque plates in a total volume of 200 μl containing 25 mM Hepes, pH 7.5, 5 mM MgCl2, 10 μg/ml saponin, 100 mM NaCl, 3 μM GDP, 0.3 nM GTPγ^35S, 40 nM MCH (approximately equal to EC90), 20 μg of clone 43 membranes, 1.0 mg of wheat germ agglutinin scintillation proximity assay beads (WGA-SPA beads, Amersham) and a graded dose of test compound. The plates are sealed and left for 16–18 hrs at 4° C. After a 1 hr delay to allow plates to equilibrate to ambient temperature, bound GTPγ^35S is determined by counting in a Microbeta Trilux (Wallac).
IC50 values (defined as the concentration of test compound required to reduce MCH-stimulated GTPγ^35S binding by 50%) are determined by fitting the concentration-response data to a 4-parameter model (max response, min response, Hill coefficient, IC50) using Excel. Kb values are calculated from IC50 values using a modification of the Cheng-Prusoff approximation as described by Leff and Dougal (Further concerns over Cheng-Prusoff analysis, Trends Pharmacol. Sci. 14: 110–112 (1993)) after verifying competitive antagonism by Schild analysis. The EC50 for MCH alone is determined independently. The MCHR1 binding and functional activities of 24 compounds in the oxadiazole series (tested in duplicate) are shown in Table 1

Experiment [3] has as its target T1, human MCHR1. The experiment can be described thus: 125I-MCH competitive binding assay (SPA) with clone 43 membranes. The following applies: competition with 125I-MCH, clone 43 membranes (AV12 cells expressing human MCHR1); Ki from IC50 by Cheng-Prusoff; tested in duplicate.
Description: as §1, §2, §3
Aliquots were stored at −70° C. Binding of compounds to MCHR1 was assessed in a competitive binding assay employing ^125I-MCH, compound and clone 43 membranes. Briefly, assays are carried out in 96-well Costar 3632 white opaque plates in a total volume of 200 μl containing 25 mM HEPES, pH 7.5, 10 mM CaCl2, 2 mg/ml bovine serum albumin, 0.5% dimethyl sulfoxide (DMSO), 4 μg of clone 43 membranes, […] ^125I-MCH (NEN), 1.0 mg of wheat germ agglutinin scintillation proximity assay beads (WGA-SPA beads, Amersham) and a graded dose of test compound. Non-specific binding is assessed in the presence of 1 μM unlabeled MCH. Bound ^125I-MCH is determined by placing sealed plates in a Microbeta Trilux (Wallac) and counting after a 5 hr delay.
IC50 values (defined as the concentration of test compound required to reduce specific binding of ^125I-MCH by 50%) are determined by fitting the concentration-response data to a 4-parameter model (max response, min response, Hill coefficient, IC50) using Excel. Ki values are calculated from IC50 values using the Cheng-Prusoff approximation as described by Cheng et al. (Relationship between the inhibition constant (Ki) and the concentration of inhibitor which causes 50% inhibition (IC50) of an enzymatic reaction, Biochem. Pharmacol., 22: 3099–3108 (1973)). The Kd for ^125I-MCH is determined independently from a saturation binding isotherm.

The source of these data is US7229987B2, “Multicyclic compounds for use as melanin concentrating hormone antagonists in the treatment of obesity and diabetes” (Eli Lilly and Company, priority 2002, dated 2007).

The Kb is the affinity of an antagonist, worked out from how it opposes an agonist. Broadly, the pKi is −log10 of the Ki, conventionally taken in molar units. The low end stands for a high Ki, the high end for a low Ki.

pKi: −log10 of the molar value.

Turning to `C(=C\c1ccc(-c2nnc(CSCCOc3ccccc3)o2)cc1)/CN1CCCC1` [Example 136, (E)-2-{[(2-phenoxyethyl)thio]methyl}-5-[4-(3-pyrrolidinopropen-1-yl)phenyl]-1,3,4-oxadiazole], in experiment [1], the “effect on orexigenic effect of exogenous MCH (cumulative food intake)” value is on record as “completely blocked the orexigenic effect of exogenous MCH”.

For the compound `c1ccc(OCCSCc2nnc(-c3ccc(OCCCN4CCCC4)cc3)o2)cc1` [drawing 51], the Kb in experiment [2] was determined as 18.1 nM. In experiment [3], this compound gave a pKi of 7.84.

In experiment [2], `CN(C)CCCOc1ccc(-c2nnc(CSCCOc3ccccc3)o2)cc1` [drawing 52] registered an antagonist equilibrium constant (Kb) of 11.9 nM. Moreover, the pKi in experiment [3] was 7.80.

In experiment [2], `c1ccc(OCCSCc2nnc(-c3ccc(OCCCCN4CCCCCC4)cc3)o2)cc1` [drawing 57] showed a Kb of 31.3 nM. The compound further had a pKi in experiment [3] of 7.42.

`CC(C)N(CCCCOc1ccc(-c2nnc(CSCCOc3ccccc3)o2)cc1)C(C)C` [drawing 59]: in experiment [2], the Kb worked out at 52.1 nM. Besides, in experiment [3], the pKi is 7.20.

In the case of `CC(C)N(CCCOc1ccc(-c2nnc(CSCCOc3ccccc3)o2)cc1)C(C)C` [drawing 60], the Kb in experiment [2] amounted to 145 nM. In addition, the pKi in experiment [3] is 6.85.

In experiment [2], `c1ccc(OCCSCc2nnc(-c3ccc(OCc4cccnc4)cc3)o2)cc1` [drawing 61] came in with a Kb of 6890 nM. In addition, in experiment [3], the negative-log Ki (pKi) is 5.54.
